Laboratory results: patent US11746116B2, “Antibiotic resistance breakers” (KING'S COLLEGE LONDON, priority 2017, dated 2023)
In brackets after ≈: the same amount, converted by molar mass. Several values for one entry are separate records, joined by “and”; a condition that tells them apart may be missing. Equal entries are not always repeated. Where two headings read alike, the source gives them in different places.

Legend:
[1] = system: Staphylococcus aureus ATCC29213; test: Murine thigh infection model, thigh bacterial burden; type: in vivo; details: neutropenic mice; for Log10 reduction from vehicle control / Thigh bacterial burden, Group Geometric mean / Thigh bacterial burden, Log10 Group Geometric mean: 8 h, 14 h post-infection, 18 h post infection; for decrease of thigh bacterial burden compared to vehicle group: 8 h and 14 h post infection, burden 18 h post infection
[2] = thigh infection study, treated groups, relative to day of infection
[3] = molecular target: Safetyscreen44 off target panel (Homo sapiens, UniProt P06239)
[4] = molecular target: Safetyscreen44 off target panel (Homo sapiens, UniProt P31645)
[5] = Single dose pharmacokinetics study, oral route; details: 20 mg/kg
[6] = molecular target: Safetyscreen44 off target panel (Homo sapiens, UniProt Q12809); test: Safetyscreen44, potential off target toxicity (Table 27)
[7] = system: Neisseria gonorrhoeae strains
[8] = male, CD-1 (ICR), mouse, in vivo, po

Chain of Safetyscreen44 off target panel (Homo sapiens, UniProt P31645) (P31645 whole entry): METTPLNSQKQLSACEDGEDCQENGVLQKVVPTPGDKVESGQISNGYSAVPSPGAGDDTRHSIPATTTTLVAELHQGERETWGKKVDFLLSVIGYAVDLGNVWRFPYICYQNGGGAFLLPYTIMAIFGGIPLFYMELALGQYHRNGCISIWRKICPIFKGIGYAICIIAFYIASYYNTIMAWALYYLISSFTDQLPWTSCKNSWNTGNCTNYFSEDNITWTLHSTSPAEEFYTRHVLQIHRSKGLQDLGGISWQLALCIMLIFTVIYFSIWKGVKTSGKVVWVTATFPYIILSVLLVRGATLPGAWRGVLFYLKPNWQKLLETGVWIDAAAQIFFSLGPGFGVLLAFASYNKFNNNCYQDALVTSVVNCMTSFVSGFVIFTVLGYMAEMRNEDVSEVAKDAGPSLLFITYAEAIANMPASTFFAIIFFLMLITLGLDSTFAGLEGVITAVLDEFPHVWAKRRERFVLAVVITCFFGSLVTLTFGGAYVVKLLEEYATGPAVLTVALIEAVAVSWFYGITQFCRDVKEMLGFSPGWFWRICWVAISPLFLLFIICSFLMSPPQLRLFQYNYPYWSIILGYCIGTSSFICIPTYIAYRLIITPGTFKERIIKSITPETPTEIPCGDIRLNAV
Chain of Safetyscreen44 off target panel (Homo sapiens, UniProt Q12809) (Q12809 whole entry): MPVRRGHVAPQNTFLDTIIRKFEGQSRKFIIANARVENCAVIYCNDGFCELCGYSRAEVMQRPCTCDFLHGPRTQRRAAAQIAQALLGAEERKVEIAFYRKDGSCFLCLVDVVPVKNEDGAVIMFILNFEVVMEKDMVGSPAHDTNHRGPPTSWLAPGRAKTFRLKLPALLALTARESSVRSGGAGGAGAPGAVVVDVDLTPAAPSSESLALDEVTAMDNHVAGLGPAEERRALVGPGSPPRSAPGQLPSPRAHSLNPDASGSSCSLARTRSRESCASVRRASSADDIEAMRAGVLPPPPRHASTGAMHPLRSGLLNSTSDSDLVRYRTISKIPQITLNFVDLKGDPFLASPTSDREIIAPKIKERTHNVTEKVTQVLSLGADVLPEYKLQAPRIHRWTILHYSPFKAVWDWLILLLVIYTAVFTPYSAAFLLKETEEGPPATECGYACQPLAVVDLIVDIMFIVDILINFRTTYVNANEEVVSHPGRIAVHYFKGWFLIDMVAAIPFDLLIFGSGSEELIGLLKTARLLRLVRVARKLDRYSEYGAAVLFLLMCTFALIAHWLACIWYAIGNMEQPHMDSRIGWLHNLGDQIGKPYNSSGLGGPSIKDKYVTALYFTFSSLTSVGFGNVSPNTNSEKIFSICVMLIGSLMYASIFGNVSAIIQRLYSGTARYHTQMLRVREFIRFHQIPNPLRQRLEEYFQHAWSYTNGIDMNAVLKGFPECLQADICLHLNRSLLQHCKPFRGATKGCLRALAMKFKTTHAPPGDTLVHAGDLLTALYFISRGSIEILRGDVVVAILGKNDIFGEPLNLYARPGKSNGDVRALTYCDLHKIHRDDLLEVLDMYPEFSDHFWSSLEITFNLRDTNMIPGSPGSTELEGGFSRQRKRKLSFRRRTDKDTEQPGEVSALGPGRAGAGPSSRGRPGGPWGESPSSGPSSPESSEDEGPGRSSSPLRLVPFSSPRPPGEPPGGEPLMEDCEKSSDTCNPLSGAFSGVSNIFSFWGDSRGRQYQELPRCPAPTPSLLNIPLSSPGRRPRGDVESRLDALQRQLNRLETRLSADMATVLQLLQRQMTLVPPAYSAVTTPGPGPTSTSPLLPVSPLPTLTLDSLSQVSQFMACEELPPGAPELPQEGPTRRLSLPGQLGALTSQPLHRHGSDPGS
Chain of Safetyscreen44 off target panel (Homo sapiens, UniProt P06239) (P06239 whole entry): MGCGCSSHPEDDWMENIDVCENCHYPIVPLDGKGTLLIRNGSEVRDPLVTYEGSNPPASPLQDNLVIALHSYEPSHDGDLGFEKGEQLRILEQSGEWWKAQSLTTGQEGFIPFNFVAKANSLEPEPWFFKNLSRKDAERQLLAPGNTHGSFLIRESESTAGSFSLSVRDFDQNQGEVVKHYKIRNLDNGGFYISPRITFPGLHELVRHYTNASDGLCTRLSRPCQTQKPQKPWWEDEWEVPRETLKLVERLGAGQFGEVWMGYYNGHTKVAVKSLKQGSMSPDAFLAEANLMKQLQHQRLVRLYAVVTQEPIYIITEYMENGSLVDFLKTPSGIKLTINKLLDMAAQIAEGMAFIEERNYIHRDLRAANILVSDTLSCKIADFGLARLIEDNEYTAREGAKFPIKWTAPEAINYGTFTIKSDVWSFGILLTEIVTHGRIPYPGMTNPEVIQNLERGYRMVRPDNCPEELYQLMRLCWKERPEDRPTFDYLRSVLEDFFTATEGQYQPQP

C[C@H]1COc2c(N3CC[C@@H](Nc4ncccn4)C3)c(F)cc3c(=O)c(C(=O)O)cn1c23 [KSN-82-L22]
Log10 reduction from vehicle control ([1]; 20 mg/kg PO at 2 h): 5.00 log10 CFU/g
Thigh bacterial burden, Group Geometric mean ([1]; 20 mg/kg PO at 2 h): 2.01 × 10^3 cfu/g
Thigh bacterial burden, Log10 Group Geometric mean ([1]; 20 mg/kg PO at 2 h): 3.30 log10 cfu/g
Log10 reduction from vehicle control ([1]; 50 mg/kg PO at 2 h): 5.16 log10 CFU/g
Thigh bacterial burden, Group Geometric mean ([1]; 50 mg/kg PO at 2 h): 1.37 × 10^3 cfu/g
Thigh bacterial burden, Log10 Group Geometric mean ([1]; 50 mg/kg PO at 2 h): 3.14 log10 cfu/g
decrease of thigh bacterial burden compared to vehicle group ([1]; 20 mg/kg/dose oral at 2 h, 20 mg/kg): 5 log10 CFU/g and > 5 log10 CFU/g
decrease of thigh bacterial burden compared to vehicle group ([1]; 50 mg/kg/dose oral at 2 h, 50 mg/kg): 5.16 log10 CFU/g and > 5 log10 CFU/g
body weights following infection [2]: slightly increased
% inhibition, Lck kinase (h) [3]: −2.891%
% inhibition, 5-HT transporter (h) (antagonist radioligand) [4]: −16.9663%
Clast ([5]; PO, Male CD1 mouse, blood, Mean): 628 ng/mL
AUC [5, 8]: 8230 ng·h/mL and 19.3 µM·h
AUC(0-inf) [5, 8]: 31 µM·h
Cmax [5, 8]: 4.01 µM and 2960 ng/mL
Tmax [5, 8]: 1 h
% inhibition, Potassium Channel hERG (human)-[3H] Dofetilide [6]: −0.2461%
MIC ([7]; ATCC49226, strain ATCC 49226, PEN-I TET-I): < 0.0312 µg/mL
MIC ([7]; ATCC700825, strain ATCC 700825): 50 µg/mL (≈ 118 µM)
MIC ([7]; BAA1833, strain BAA-1833, PEN-I TET-I): 50 µg/mL (≈ 118 µM)
MIC ([7]; BAA1838, strain BAA-1838): 50 µg/mL (≈ 118 µM)
MIC ([7]; CCUG57595, strain CCUG 57595): 50 µg/mL (≈ 118 µM)
MIC ([7]; CCUG57596): 0.125 µg/mL (≈ 0.294 µM)
MIC ([7]; CCUG57597, strain CCUG 57597, FEP-NS FOX-I CAZ-NS CIP-R OFX-R PEN-R TET-R): 2 µg/mL (≈ 4.7 µM)
MIC ([7]; CCUG57598, strain CCUG 57598, FOX-R CAZ-NS CRO-NS CIP-R OFX-R PEN-R TET-R): 2 µg/mL (≈ 4.7 µM)
MIC ([7]; CCUG57599, strain CCUG 57599, CIP-R OFX-R PEN-R TET-R): 0 to 5 µg/mL
MIC ([7]; CCUG57600, strain CCUG 57600, CIP-R OFX-R PEN-R TET-R): 1 µg/mL (≈ 2.35 µM)
MIC ([7]; CCUG57601, strain CCUG 57601, PEN-R TET-R): < 0.0312 µg/mL
MIC ([7]; CCUG57602, strain CCUG 57602, PEN-I TET-I): 0.0625 µg/mL (≈ 0.147 µM)
MIC ([7]; NCTC13817, strain NCTC 13817, PEN-R TET-I): 0 to 5 µg/mL
MIC ([7]; NCTC13818, strain NCTC 13818, CIP-R OFX-R PEN-R TET-R): 2 µg/mL (≈ 4.7 µM)
MIC ([7]; NCTC13819, strain NCTC 13819, FEP-NS CAZ-NS CIP-R OFX-R PEN-R TET-I): 2 µg/mL (≈ 4.7 µM)
MIC ([7]; NCTC13820, strain NCTC 13820, FEP-NS CFM-NS CAZ-NS CRO-NS CIP-R OFX-R PEN-R TET-R): 2 µg/mL (≈ 4.7 µM)
MIC ([7]; NCTC13821, strain NCTC 13821, FEP-NS CFM-NS CAZ-NS CRO-NS CIP-R PEN-I TET-I): 2 µg/mL (≈ 4.7 µM)
MIC ([7]; NCTC13822, strain NCTC 13822, FEP-NS CFM-NS CAZ-NS CIP-R OFX-R PEN-R TET-I): 2 µg/mL (≈ 4.7 µM)
MIC ([7]; strain 2007NG046, PEN-R CFM-R CPD-R CIP-R): 4 µg/mL (≈ 9.4 µM)
MIC ([7]; strain 2008NG057, PEN-R CFM-R CPD-R CIP-R): 2 µg/mL (≈ 4.7 µM)
MIC ([7]; strain 2008NG097, PEN-R CFM-R CPD-R CIP-R): 2 µg/mL (≈ 4.7 µM)
MIC ([7]; strain 2009NG514, PEN-R CPD-R CIP-R): 2 µg/mL (≈ 4.7 µM)
MIC ([7]; strain 2010NG122, PEN-R CFM-R CIP-R): 2 µg/mL (≈ 4.7 µM)
MIC ([7]; strain FDA-CDC AR-BANK#0165, CIP-R PEN-I TET-R): 2 µg/mL (≈ 4.7 µM)
MIC ([7]; strain FDA-CDC AR-BANK#0166, CIP-R PEN-I TET-R): 2 µg/mL (≈ 4.7 µM)
MIC ([7]; strain FDA-CDC AR-BANK#0167, CIP-S PEN-S TET-I): < 0.0312 µg/mL
MIC ([7]; strain FDA-CDC AR-BANK#0168, CIP-R PEN-I TET-R): 1 µg/mL (≈ 2.35 µM)
MIC ([7]; strain FDA-CDC AR-BANK#0169, CIP-R PEN-I TET-R): 2 µg/mL (≈ 4.7 µM)
MIC ([7]; strain FDA-CDC AR-BANK#0170, CIP-R PEN-I TET-R): 2 µg/mL (≈ 4.7 µM)
MIC ([7]; strain FDA-CDC AR-BANK#0171, CIP-R PEN-I TET-R): 1 µg/mL (≈ 2.35 µM)
MIC ([7]; strain FDA-CDC AR-BANK#0172, CIP-R PEN-R TET-R): 1 µg/mL (≈ 2.35 µM)
MIC ([7]; strain FDA-CDC AR-BANK#0173, CIP-R PEN-R TET-R): 2 µg/mL (≈ 4.7 µM)
MIC ([7]; strain FDA-CDC AR-BANK#0174, CIP-R PEN-R TET-R): 2 µg/mL (≈ 4.7 µM)
MIC ([7]; strain FDA-CDC AR-BANK#0175, CIP-S PEN-I TET-I): < 0.0312 µg/mL
MIC ([7]; strain FDA-CDC AR-BANK#0176, CIP-R PEN-R TET-R): 2 µg/mL (≈ 4.7 µM)
MIC ([7]; strain FDA-CDC AR-BANK#0177, CIP-S PEN-I TET-R): < 0.0312 µg/mL
MIC ([7]; strain FDA-CDC AR-BANK#0178, CIP-R PEN-R TET-R): 2 µg/mL (≈ 4.7 µM)
MIC ([7]; strain FDA-CDC AR-BANK#0179, CIP-S PEN-S TET-I): < 0.0312 µg/mL
MIC ([7]; strain FDA-CDC AR-BANK#0180, CIP-R PEN-I TET-R): 2 µg/mL (≈ 4.7 µM)
MIC ([7]; strain FDA-CDC AR-BANK#0181, CIP-S PEN-I TET-R): < 0.0312 µg/mL
MIC ([7]; strain FDA-CDC AR-BANK#0182, CIP-R PEN-I TET-R): 2 µg/mL (≈ 4.7 µM)
MIC ([7]; strain FDA-CDC AR-BANK#0183, CIP-R PEN-R TET-R): 2 µg/mL (≈ 4.7 µM)
MIC ([7]; strain FDA-CDC AR-BANK#0184, CIP-R PEN-R TET-R): 2 µg/mL (≈ 4.7 µM)
MIC ([7]; strain FDA-CDC AR-BANK#0185, CIP-R PEN-I TET-R): 2 µg/mL (≈ 4.7 µM)
MIC ([7]; strain FDA-CDC AR-BANK#0186, CIP-R PEN-R TET-R): 1 µg/mL (≈ 2.35 µM)
MIC ([7]; strain FDA-CDC AR-BANK#0187, CIP-R PEN-I TET-R): 2 µg/mL (≈ 4.7 µM)
MIC ([7]; strain FDA-CDC AR-BANK#0188, CIP-R PEN-I TET-R): 1 µg/mL (≈ 2.35 µM)
MIC ([7]; strain FDA-CDC AR-BANK#0189, CIP-R PEN-R TET-R): 2 µg/mL (≈ 4.7 µM)
MIC ([7]; strain FDA-CDC AR-BANK#0190, CIP-R PEN-R TET-R): 2 µg/mL (≈ 4.7 µM)
MIC ([7]; strain FDA-CDC AR-BANK#0191, CIP-R PEN-R TET-R): 2 µg/mL (≈ 4.7 µM)
MIC ([7]; strain FDA-CDC AR-BANK#0192, CIP-R PEN-R TET-R): 2 µg/mL (≈ 4.7 µM)
MIC ([7]; strain FDA-CDC AR-BANK#0193, CIP-S PEN-R TET-R): < 0.0312 µg/mL
MIC ([7]; strain FDA-CDC AR-BANK#0194, CRO-NS CIP-S PEN-I TET-R): < 0.0312 µg/mL
MIC ([7]; strain FDA-CDC AR-BANK#0195, CIP-R PEN-I TET-R): 2 µg/mL (≈ 4.7 µM)
MIC ([7]; strain FDA-CDC AR-BANK#0196, CIP-R PEN-R TET-R): 2 µg/mL (≈ 4.7 µM)
MIC ([7]; strain FDA-CDC AR-BANK#0197, CIP-R PEN-I TET-I): 2 µg/mL (≈ 4.7 µM)
MIC ([7]; strain FDA-CDC AR-BANK#0198, CIP-R PEN-R TET-R): 2 µg/mL (≈ 4.7 µM)
MIC ([7]; strain FDA-CDC AR-BANK#0199, CIP-S PEN-R TET-R): < 0.0312 µg/mL
MIC ([7]; strain FDA-CDC AR-BANK#0200, CIP-R PEN-R TET-R): 2 µg/mL (≈ 4.7 µM)
MIC ([7]; strain FDA-CDC AR-BANK#0201, CIP-R PEN-R TET-R): 2 µg/mL (≈ 4.7 µM)
MIC ([7]; strain FDA-CDC AR-BANK#0202, CIP-S PEN-S TET-I): < 0.0312 µg/mL
MIC ([7]; strain FDA-CDC AR-BANK#0203, CIP-R PEN-R TET-R): 2 µg/mL (≈ 4.7 µM)
MIC ([7]; strain FDA-CDC AR-BANK#0204, CIP-R PEN-I TET-R): 2 µg/mL (≈ 4.7 µM)
MIC ([7]; strain FDA-CDC AR-BANK#0205, CIP-R PEN-R TET-R): 2 µg/mL (≈ 4.7 µM)
MIC ([7]; strain FDA-CDC AR-BANK#0206, CIP-R PEN-R TET-R): 2 µg/mL (≈ 4.7 µM)
MIC ([7]; strain FDA-CDC AR-BANK#0207, CIP-R PEN-R TET-R): 2 µg/mL (≈ 4.7 µM)
MIC ([7]; strain FDA-CDC AR-BANK#0208, CIP-R PEN-I TET-R): 2 µg/mL (≈ 4.7 µM)
MIC ([7]; strain FDA-CDC AR-BANK#0209, CIP-R PEN-I TET-R): 2 µg/mL (≈ 4.7 µM)
MIC ([7]; strain FDA-CDC AR-BANK#0210, CIP-R PEN-I TET-I): 2 µg/mL (≈ 4.7 µM)
MIC ([7]; strain FDA-CDC AR-BANK#0211, CIP-R PEN-R TET-R): 2 µg/mL (≈ 4.7 µM)
MIC ([7]; strain FDA-CDC AR-BANK#0212, CIP-R PEN-I TET-R): 2 µg/mL (≈ 4.7 µM)
MIC ([7]; strain FDA-CDC AR-BANK#0213, CIP-R PEN-I TET-I): 1 µg/mL (≈ 2.35 µM)
MIC ([7]; strain FDA-CDC AR-BANK#0214, CIP-R PEN-R TET-R): 2 µg/mL (≈ 4.7 µM)
MIC ([7]; strain TCDC-NG08107, PEN-R CFM-R CPD-R CIP-R): 2 µg/mL (≈ 4.7 µM)
